Measured values reported in patent US20020081566A1, “HIV PROTEIN EPITOPES IMMUNOLOGICALLY HOMOLOGOUS TO HLA” (priority 1992, published 2002).

Legend:
[1] = target: T1, viral gp160 (Human immunodeficiency virus type 1 group M subtype B, UniProt P03377); type: binding, HIV; details: for binding to viral gp160 of AIDS serum antibodies pre-adsorbed on the peptide and eluted: sera from AIDS affected subjects, HIV western blot stripes, FIGS. 5 and 6; for reactivity of sera / antibodies raised against native gp160 in HIV positive subjects with the peptide region: sera from HIV positive subjects
T1 construct: purchased SORIN BIOMEDICA, Saluggia, Italy
T1 sequence (P03377 33-861): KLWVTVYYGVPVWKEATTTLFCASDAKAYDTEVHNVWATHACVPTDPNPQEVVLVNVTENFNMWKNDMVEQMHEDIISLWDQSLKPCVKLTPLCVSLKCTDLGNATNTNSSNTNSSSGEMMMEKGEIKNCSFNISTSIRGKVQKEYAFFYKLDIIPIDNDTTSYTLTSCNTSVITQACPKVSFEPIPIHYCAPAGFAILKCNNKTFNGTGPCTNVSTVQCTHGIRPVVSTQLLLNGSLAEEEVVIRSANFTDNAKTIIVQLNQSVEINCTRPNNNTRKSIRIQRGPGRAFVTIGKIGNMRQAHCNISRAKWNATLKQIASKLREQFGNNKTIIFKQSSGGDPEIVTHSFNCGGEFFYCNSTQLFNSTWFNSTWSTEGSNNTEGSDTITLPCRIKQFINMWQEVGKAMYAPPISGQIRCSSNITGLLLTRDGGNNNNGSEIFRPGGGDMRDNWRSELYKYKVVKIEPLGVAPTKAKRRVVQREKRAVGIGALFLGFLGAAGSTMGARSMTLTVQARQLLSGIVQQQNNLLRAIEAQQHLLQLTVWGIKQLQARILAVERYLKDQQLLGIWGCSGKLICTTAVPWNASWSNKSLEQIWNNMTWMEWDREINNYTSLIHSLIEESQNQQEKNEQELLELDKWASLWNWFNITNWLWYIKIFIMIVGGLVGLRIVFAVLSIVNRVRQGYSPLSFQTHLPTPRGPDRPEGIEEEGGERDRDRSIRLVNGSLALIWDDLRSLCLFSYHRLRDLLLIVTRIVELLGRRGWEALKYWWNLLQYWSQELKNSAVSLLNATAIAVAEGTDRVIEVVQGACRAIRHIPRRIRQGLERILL
Protocol: Sera from AIDS affected subjects are immunoadsorbed on columns of either S. MAP HIV, or MAP HLA 11 or MAP HLA 12 peptide coupled Sepharose (CNBR activated sepharose 4B from […]) and eluted. 1 ml of Sepharose/peptide equilibrated with 0.1 M TRIS HCl pH 8 and 0.5 M NaCl buffer is incubated for 16 hours with 100 μl of serum, washed with 0.1 M TRIS HCl ph 8 and 0.5 M NaCl. The bound antibodies are eluted with a buffer containing 0.2 M glycine pH 2 and 0.5 M NaCl. The eluted antibodies are assayed on HIV western blot commercial stripes (SORIN BIOMEDICA, Saluggia, Italy) and detected using the chemio-luminescence system from […]. […] Lane M is obtained from one of the “in toto” sera and used as control.
The same test is carried out using two sera of AIDS affected patients (FIG. 6), pre-adsorbed with the S. MAP HIV peptide (lanes A and B) or with the HIV 9 peptide (lanes C and D), and eluted.

[2] = system: syncytium between HIV infected 8E51 LAV cells and not infected CD4+ MOLT3 cells; assay: Syncytium formation inhibition assay; type: cell-based; details: mice sera; pre-immunization sera as specificity control; FIG. 9
Protocol: In order to check the ability to neutralize the viral infection of sera raised against the HLA homologous regions, mice sera are prepared by immunization with either S. MAP HLA or S. MAP HIV peptides. Sera are assayed for antibody ability to inhibit syncytium cells between HIV infected cells (8E51 LAV cells, AIDS Repository National Insitute of Health, Bethesda, Md. USA, “Journ. Exp. Medicine, 164, 280, 1986) and not infected, CD4+ cells (MOLT3 cells, AIDS Repository National Institute of Health, Bethesda, Md., USA). The syncytiums are counted at the optical microscope and the inhibition percentages are evaluated with reference to syncytiums in a control antibody-free cell culture. As specifity control, sera of mice before immunization are used.

[3] = target: recombinant gp160 protein (Human immunodeficiency virus type 1 group M subtype B, UniProt P03377); details: BALB/c female mice, subcutaneous, Freund's incomplete adjuvant, after third immunization; compared with control peptide serum (NMS); FIG. 1
Sequence of recombinant gp160 protein (P03377 33-861): as above
Protocol: S.MAP HIV and S. MAP HLA peptides are injected subcutaneously to BALB/c female mice together with Freund's incomplete adjuvant. After the third immunization (for a total of three immunizations at three week intervals) mice sera are tested by an ELISA assay with the recombinant gp160 protein (from Transgene, Strasbourg) as follows: microtiter plastic wells (NUNC) are coated with 0.2 μg of protein resuspended in phospahte buffer pH 9, for 1.5 hours at 37° C., followed by washing with phosphate buffer pH 7, and by further incubating for 1 hour at 37° C. with bovine serum albumin (BSA, 1 mg/ml), to saturate the free sites of solid phase. After three washings, diluted sera in PBS, comprising BSA 1% w/v, are incubated with the coated wells for 1 hour at 37° C. After five washings in PBS, a rabbit anti-mouse Igs serum (SIGMA), 1/1000 diluted, is added. After 45 min. incubation at 37° C., wells are washed five times and 100 μl of chromogen substrate is added to each well (SORIN BIOMEDICA, Saluggia, Italy). The adsorbance is read with an automatic ELISA reader (BIORAD).

Sequence	binding to viral gp160 of AIDS serum antibodies pre-adsorbed on the peptide and eluted [1]	reactivity of sera / antibodies raised against native gp160 in HIV positive subjects with the peptide region [1]	further results
IEPLGVAPT [MAP HIV 9]	do not show any reactivity	none of sera from HIV positive subjects are reactive	–
NLRKLRGYY [MAP HLA 12]	bind similarly to the viral gp160	–	binding to a 45 KD protein (likely HLA heavy chains) of AIDS serum antibodies pre-adsorbed on the peptide ([1]; one serum, lane E, FIG. 5): also bind to a 45 KD protein
PTKAKRRVV [MAP HIV 12]	–	react	–
SELYKYKVVK [MAP HIV 11]	–	react	–
SELYKYKVVKIEPLGVAPTKAKRRVV [S. MAP HIV]	bind similarly to the viral gp160	–	neutralization of viral fusion (syncytium inhibition) by antibodies of mice immunized with the peptide [2]: ability to neutralize the viral fusion; reaction of sera of peptide immunized mice with the recombinant gp160 protein [3]: react at significantly higher level
TQKYKRQAQ [MAP HLA 11]	bind similarly to the viral gp160	–	–
TQKYKRQAQADRVNLRKLRGYY [S. MAP HLA]	–	–	neutralization of viral fusion (syncytium inhibition) by antibodies of mice immunized with the peptide [2]: same ability to neutralize the viral fusion; reaction of sera of peptide immunized mice with the recombinant gp160 protein [3]: react specifically
